# Where a SMILES comes first, the peptide text is derived from it. [ ]: non-standard residue; d: D form. The star is where a group is joined. Bip = N[C@@H](Cc1ccc(-c2ccccc2)cc1)C(=O)O; Pip = O=C(O)[C@@H]1CCCCN1; NMeA = CN[C@@H](C)C(=O)O; Nle = CCCC[C@H](N)C(=O)O; Orn = NCCC[C@H](N)C(=O)O; Abu = CC[C@H](N)C(=O)O; Cbz = O=C(OCc1ccccc1)*; Boc = CC(C)(C)OC(=O)*; Aib = CC(C)(N)C(=O)O; Sar = CNCC(=O)O
# Biological target: T1, Solute carrier family 15 member 1 (Homo sapiens, UniProt P46059)
# T1 sequence (P46059 whole entry): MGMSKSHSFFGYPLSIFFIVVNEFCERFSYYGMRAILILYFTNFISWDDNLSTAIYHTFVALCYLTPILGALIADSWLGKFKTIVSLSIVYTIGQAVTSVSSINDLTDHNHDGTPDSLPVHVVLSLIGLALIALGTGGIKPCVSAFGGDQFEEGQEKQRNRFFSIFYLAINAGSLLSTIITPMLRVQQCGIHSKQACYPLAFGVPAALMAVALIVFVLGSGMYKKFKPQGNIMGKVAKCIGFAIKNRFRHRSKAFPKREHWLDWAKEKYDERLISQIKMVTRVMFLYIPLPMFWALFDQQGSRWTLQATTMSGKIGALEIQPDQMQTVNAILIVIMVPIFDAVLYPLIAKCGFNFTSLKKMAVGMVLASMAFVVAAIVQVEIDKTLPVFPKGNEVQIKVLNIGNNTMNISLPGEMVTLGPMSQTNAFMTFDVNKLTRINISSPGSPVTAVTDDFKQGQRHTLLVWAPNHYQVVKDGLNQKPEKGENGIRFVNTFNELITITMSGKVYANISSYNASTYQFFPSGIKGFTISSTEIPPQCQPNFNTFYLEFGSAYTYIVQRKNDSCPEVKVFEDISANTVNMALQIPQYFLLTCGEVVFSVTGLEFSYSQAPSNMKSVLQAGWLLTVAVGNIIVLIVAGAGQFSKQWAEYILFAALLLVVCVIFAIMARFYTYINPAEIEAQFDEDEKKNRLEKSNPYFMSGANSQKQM
# Experiment: Inhibition constant (Ki) for human intestinal peptide carrier
row,Compound,Ki
1,CC[C@H](NC(=O)[C@H](C)N)C(=O)O (H-Ala-[Abu]-OH),70 µM
2,NCC(=O)CCC(=O)O [AMINOLEVULINIC ACID],790 µM
3,O=C(O)[C@H](Cc1ccc(O)cc1)NC(=O)[C@@H]1CCCN1 (H-Pro-Tyr-OH),730 µM
4,CC(N)C(=O)Nc1cccc(-c2ccccc2)c1 (configuration not stated),290 µM
5,C[C@@H](N)C(=O)N[C@H](C)C(=O)O (H-[dA]-[dA]-OH),> 30000 µM
6,C[C@H](NC(=O)[C@@H](N)CCC(=O)O)C(=O)O (H-Glu-Ala-OH),250 µM
7,N[C@@H](Cc1cc2ccccc2[nH]1)C(=O)N1CCC[C@H]1C(=O)O,130 µM
8,CC(C)C[C@H](N)C(=O)N1CCC[C@H]1C(=O)O (H-Leu-Pro-OH),110 µM
9,CC(N)C(=S)N1CCCC1C(=O)O (configuration not stated),330 µM
10,C[C@H](NC(=O)[C@@H]1CCCN1)C(=O)O (H-Pro-Ala-OH),9500 µM
11,CC(NC(=O)[C@H](N)Cc1ccc(OCc2ccccc2)cc1)C(=O)O (some centres not stated),1400 µM
12,CNCC(=O)N1CCC[C@H]1C(=O)O (H-[Sar]-Pro-OH),1600 µM
13,C[C@H](N)C(=O)N(C)CC(=O)O (H-Ala-[Sar]-OH),250 µM
14,CC(C)C[C@H](NC(=O)[C@@H]1CCCN1)C(=O)O (H-Pro-Leu-OH),470 µM
15,O=C(O)CNC(=O)[C@@H]1CCCN1 (H-Pro-Gly-OH),22000 µM
16,O=C(O)CC[C@H](NC(=O)[C@@H]1CCCN1)C(=O)O (H-Pro-Glu-OH),20000 µM
17,COC(=O)c1ccc(NC(=O)C(C)N)cc1 (configuration not stated),1100 µM
18,NCC(=O)N[C@@H](CC(=O)O)C(=O)O (H-Gly-Asp-OH),350 µM
19,CNCC(=O)N(C)CC(=O)O,32000 µM
20,CC(C)C[C@H](N)C(=O)N[C@@H](C)C(=O)O [LEU-ALA] (H-Leu-Ala-OH),120 µM
21,CC(N)C(=O)N1CCCCC1 (configuration not stated),12900 µM
22,CC(C)C[C@H](NC(=O)CN)C(=O)O,160 µM
23,C[C@H](N)C(=O)N[C@@H](Cc1ccc(O)cc1)C(=O)O (H-Ala-Tyr-OH),150 µM
24,CN(CC(=O)O)C(=O)CN [GLYCYLSARCOSINE] (H-Gly-[Sar]-OH),830 µM
25,CN[C@@H](C)C(=O)N[C@@H](C)C(=O)O (H-[NMeA]-Ala-OH),1800 µM
26,CC(C)[C@H](N)C(=O)N[C@@H](C)C(=O)O (H-Val-Ala-OH),90 µM

row,Compound,Ki
1,CCC(C)C(N)C(=O)N1CCCCC1 (configuration not stated),5620 µM
2,O=C(O)[C@H](Cc1ccccc1)NC(=O)[C@@H]1CCCN1 (H-Pro-Phe-OH),1900 µM
3,C[C@H](N)C(=O)N[C@@H](CO)C(=O)O (H-Ala-Ser-OH),140 µM
4,C[C@H](NC(=O)[C@@H](N)Cc1ccc(O)cc1)C(=O)O,90 µM
5,NCCC(=O)NCCC(=O)O,> 30000 µM
6,N[C@@H](Cc1ccccc1)C(=O)N[C@@H](Cc1ccccc1)C(=O)O (H-Phe-Phe-OH),110 µM
7,C[C@H](NC(=O)[C@@H](N)Cc1cc2ccccc2[nH]1)C(=O)O,160 µM
8,Cc1cccc(NC(=O)C(C)N)c1 (configuration not stated),410 µM
9,C[C@H](NC(=O)[C@@H](N)CO)C(=O)O (H-Ser-Ala-OH),140 µM
10,C[C@H](N)C(=O)N[C@@H](Cc1c[nH]cn1)C(=O)O (H-Ala-His-OH),330 µM
11,C[C@@H](N)C(=O)N1CCC[C@H]1C(=O)O (stereo in doubt; 56),4900 µM
12,N[C@@H](Cc1ccc(O)cc1)C(=O)N[C@@H](Cc1ccccc1)C(=O)O (H-Tyr-Phe-OH),90 µM
13,C[C@H](NC(=O)[C@H](C)NC(=O)OCc1ccccc1)C(=O)O (Cbz-Ala-Ala-OH),5600 µM
14,CC(N)C(=O)Nc1ccc(Cl)cc1 (configuration not stated),330 µM
15,C[C@H](NC(=O)[C@@H](C)N)C(=O)O (H-[dA]-Ala-OH),2000 µM
16,CC(N)C(=O)Nc1ccccc1-c1ccccc1 (configuration not stated),16600 µM
17,CC(N)C(=O)NCCS(=O)(=O)O (configuration not stated),1200 µM
18,Cc1ccc(NC(=O)C(C)N)cc1 (configuration not stated),340 µM
19,COC(=O)c1cccc(NC(=O)C(C)N)c1 (configuration not stated),6900 µM
20,CC(N)C(=O)Nc1c(F)c(F)c(F)c(F)c1F (configuration not stated),3100 µM
21,CC(NC(=O)CCN)C(=O)O (configuration not stated),4800 µM
22,C[C@H](N)C(=O)N[C@H](C)C(=O)O (H-Ala-[dA]-OH),4200 µM
23,CC1NC(=O)C(CCCCN)NC1=O (configuration not stated),5400 µM
24,CC(N)C(=O)Nc1cccc(Cl)c1 (configuration not stated),460 µM
25,CC(N)C(=O)Nc1ccc(C(=O)O)cc1 (configuration not stated),9100 µM
26,CCCC[C@H](N)C(=O)N1CCC[C@H]1C(=O)O (H-[Nle]-Pro-OH),160 µM

row,Compound,Ki
1,CC(NC(=O)C(N)Cc1ccc(OCc2ccccc2)cc1)C(=O)O (configuration not stated),10 µM
2,CC(N)C(=O)NC(C)C(=O)O (configuration not stated),120 µM
3,CC(N)C(=O)NCc1ccccc1 (configuration not stated),14100 µM
4,C[C@H](N)C(=O)NC(C)(C)C(=O)O (H-Ala-[Aib]-OH),1200 µM
5,C[C@H](N)C(=O)N[C@@H](CCC(=O)O)C(=O)O (H-Ala-Glu-OH),320 µM
6,C[C@H](N)C(=O)N[C@@H](CCCN)C(=O)O (H-Ala-[Orn]-OH),980 µM
7,NCC(=O)NCC(=O)O (H-Gly-Gly-OH),1000 µM
8,NCC(=O)N[C@@H](Cc1c[nH]cn1)C(=O)O (H-Gly-His-OH),1000 µM
9,CC(N)C(=O)Nc1cccc(C(=O)O)c1 (configuration not stated),310 µM
10,CN(CC(=O)O)C(=O)[C@@H](N)Cc1ccccc1,210 µM
11,C[C@H](N)C(=O)N[C@@H](CC(=O)O)C(=O)O (H-Ala-Asp-OH),260 µM
12,NCC(=O)N1CCC[C@H]1C(=O)O [GLYCYL PROLINE] (H-Gly-Pro-OH),300 µM
13,N[C@@H](Cc1ccccc1)C(=O)N1CCC[C@H]1C(=O)O (H-Phe-Pro-OH),130 µM
14,C[C@H](NC(=O)[C@@H](N)Cc1ccc(Cc2ccccc2)cc1)C(=O)O,20 µM
15,C[C@H](NC(=O)[C@@H](N)Cc1c[nH]cn1)C(=O)O (H-His-Ala-OH),480 µM
16,NCCCCC(=O)O [5-AMINOVALERIC ACID],17400 µM
17,C[C@@H](NC(=O)[C@@H](N)CC(=O)O)C(=O)OCc1ccccc1,8300 µM
18,CCCC[C@H](N)C(=O)N[C@@H](C)C(=O)O (H-[Nle]-Ala-OH),140 µM
19,CC(N)C(=O)NCCC(=O)O (configuration not stated),2700 µM
20,CC(N)C(=O)Nc1ccccc1 (configuration not stated),2900 µM
21,CC(C)CC(NC(=O)C(O)C(N)Cc1ccccc1)C(=O)O (configuration not stated),400 µM
22,CC(C)[C@H](N)C(=O)N1CCC[C@H]1C(=O)O (H-Val-Pro-OH),60 µM
23,C[C@H](NC(=O)[C@@H](N)CC(=O)O)C(=O)O (H-Asp-Ala-OH),320 µM
24,N[C@@H](Cc1ccc(O)cc1)C(=O)N1CCC[C@H]1C(=O)O (H-Tyr-Pro-OH),160 µM
25,C[C@H](NC(=O)[C@@H](N)CC(=O)O)C(N)=O (H-Asp-Ala-NH2),5400 µM
26,CC(C)[C@H](N)C(=O)N[C@@H](Cc1ccc(O)cc1)C(=O)O (H-Val-Tyr-OH),100 µM

row,Compound,Ki
1,C[C@H](N)C(=O)NCC(=O)O (H-Ala-Gly-OH),140 µM
2,CC(NC(=O)CN)C(=O)O (configuration not stated),380 µM
3,N[C@@H](CCC(=O)O)C(=O)N1CCC[C@H]1C(=O)O (H-Glu-Pro-OH),140 µM
4,CC(N)C(=O)NC1CCCCC1 (configuration not stated),1500 µM
5,NCCC(=O)NCC(=O)O,7300 µM
6,C[C@H](N)C(=O)N1CCCC[C@H]1C(=O)O (H-Ala-[Pip]-OH),60 µM
7,C[C@@H](N)C(=O)N1CCC[C@@H]1C(=O)O,> 30000 µM
8,CC(N)C(=O)Nc1ccccc1Cl (configuration not stated),7800 µM
9,CCCC[C@H](NC(=O)[C@H](C)N)C(=O)O (H-Ala-[Nle]-OH),90 µM
10,C[C@H](N)C(=O)N1CCC[C@H]1C(=O)O,150 µM
11,C[C@H](N)C(=O)N[C@@H](Cc1ccc(Cc2ccccc2)cc1)C(=O)O,120 µM
12,CC(N)C(=O)Nc1ccccc1C(=O)O (configuration not stated),2800 µM
13,COC(=O)c1ccccc1NC(=O)C(C)N (configuration not stated),890 µM
14,CC(=O)N[C@@H](C)C(=O)N[C@@H](C)C(=O)O (Ac-Ala-Ala-OH),> 30000 µM
15,N[C@@H](CO)C(=O)N1CCC[C@H]1C(=O)O (H-Ser-Pro-OH),130 µM
16,CCC(C)C(N)C(=O)N1CCSC1 (configuration not stated),6300 µM
17,N[C@@H](CS)C(=O)NCC(=O)O,200 µM
18,C[C@H](NC(=O)[C@H](C)NC(=O)OC(C)(C)C)C(=O)O (Boc-Ala-Ala-OH),> 30000 µM
19,N[C@@H](CC(=O)O)C(=O)N[C@@H](CC(=O)O)C(=O)O (H-Asp-Asp-OH),410 µM
20,CC(N)C(=O)N1CCSC1 (configuration not stated),11000 µM
21,O=C(O)[C@H](CO)NC(=O)[C@@H]1CCCN1 (H-Pro-Ser-OH),14000 µM
22,C[C@H](NC(=O)[C@@H](N)Cc1ccc(-c2ccccc2)cc1)C(=O)O (H-[Bip]-Ala-OH),20 µM
23,CC1NC(=O)C(CCCN)NC1=O (configuration not stated),2300 µM
24,C[C@@H](N)C(=O)N1CCC[C@H]1C(=O)O (stereo in doubt; 69),15100 µM
